Test [1] has as its target T1, 5-hydroxytryptamine receptor 1A (Rattus norvegicus, UniProt P19327). Further: in other assays of this panel Not Active means under 50% inhibition at 10 µM.
T1 sequence (P19327 whole entry): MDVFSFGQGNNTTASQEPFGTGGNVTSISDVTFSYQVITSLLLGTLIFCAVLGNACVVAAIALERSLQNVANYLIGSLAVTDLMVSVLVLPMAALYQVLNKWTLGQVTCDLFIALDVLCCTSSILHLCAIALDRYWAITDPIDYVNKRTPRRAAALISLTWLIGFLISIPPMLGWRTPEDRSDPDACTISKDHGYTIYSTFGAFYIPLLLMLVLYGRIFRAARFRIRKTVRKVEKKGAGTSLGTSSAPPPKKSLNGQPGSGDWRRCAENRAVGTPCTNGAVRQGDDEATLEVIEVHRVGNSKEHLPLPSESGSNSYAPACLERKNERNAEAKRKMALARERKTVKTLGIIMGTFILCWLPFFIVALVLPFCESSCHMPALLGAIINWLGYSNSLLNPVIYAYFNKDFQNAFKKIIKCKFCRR
The class given is cell membranes, CHO-K1, Membrane.

Test [2] concerns the target Mitogen-activated protein kinase 1 (Homo sapiens, UniProt P28482). Kind of test: DRUGMATRIX: Protein Serine/Threonine Kinase, ERK2 enzyme inhibition (substrate: Myelin Basic Protein). To be noted: Not Active = under 50% inhibition at 10 µM. Also noted: species or system Escherichia coli.
Test [3] concerns the target T2, Neuropeptide Y receptor type 2 (Homo sapiens, UniProt P49146). Further: in other assays of this panel Not Active means under 50% inhibition at 10 µM.
T2 sequence (P49146 whole entry): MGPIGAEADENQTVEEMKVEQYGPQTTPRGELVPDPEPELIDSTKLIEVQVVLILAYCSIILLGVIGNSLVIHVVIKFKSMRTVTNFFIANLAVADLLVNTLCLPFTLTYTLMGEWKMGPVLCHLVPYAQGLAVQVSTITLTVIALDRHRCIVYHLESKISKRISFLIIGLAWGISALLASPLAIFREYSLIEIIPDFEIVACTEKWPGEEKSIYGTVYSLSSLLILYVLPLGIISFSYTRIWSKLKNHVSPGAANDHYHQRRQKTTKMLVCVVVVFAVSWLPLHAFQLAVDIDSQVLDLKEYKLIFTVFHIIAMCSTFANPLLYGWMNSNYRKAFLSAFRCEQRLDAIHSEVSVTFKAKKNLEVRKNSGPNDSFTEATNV
The class given is cell membranes, Membrane. The conditions noted are these: kan-ts.

For test [4], the target named is T3, Muscarinic acetylcholine receptor M2 (Homo sapiens, UniProt P08172). Further: in other assays of this panel Not Active means under 50% inhibition at 10 µM.
T3 sequence (P08172 whole entry): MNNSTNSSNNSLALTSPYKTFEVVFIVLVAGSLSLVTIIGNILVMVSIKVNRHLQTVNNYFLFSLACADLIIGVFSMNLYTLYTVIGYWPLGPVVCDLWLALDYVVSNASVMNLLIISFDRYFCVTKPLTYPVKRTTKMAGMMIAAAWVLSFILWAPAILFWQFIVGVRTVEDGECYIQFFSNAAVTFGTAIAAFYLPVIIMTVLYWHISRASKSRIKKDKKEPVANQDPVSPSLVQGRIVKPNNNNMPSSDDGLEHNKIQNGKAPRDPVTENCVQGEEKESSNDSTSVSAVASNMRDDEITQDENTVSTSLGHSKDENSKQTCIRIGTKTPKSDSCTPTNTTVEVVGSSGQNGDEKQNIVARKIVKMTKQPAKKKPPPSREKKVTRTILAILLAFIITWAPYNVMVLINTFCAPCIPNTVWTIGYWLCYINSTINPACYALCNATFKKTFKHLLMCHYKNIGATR
Type of test: cell membranes, CHO-K1, Membrane.

Test [5] has as its target Sigma non-opioid intracellular receptor 1 (Homo sapiens, UniProt Q99720). Kind of test: DRUGMATRIX: Sigma1 radioligand binding (ligand: [3H] Haloperidol). The class given is cell membranes, Jurkat, Membrane. To be noted: Not Active = under 50% inhibition at 10 µM.
In test [6] the target is T4, Nitric oxide synthase, inducible (Mus musculus, UniProt P29477).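 Further: inhibition of iNOS enzyme activity measured with L-arginine as substrate; in other assays of this panel Not Active means under 50% inhibition at 10 µM.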
T4 sequence (P29477 whole entry): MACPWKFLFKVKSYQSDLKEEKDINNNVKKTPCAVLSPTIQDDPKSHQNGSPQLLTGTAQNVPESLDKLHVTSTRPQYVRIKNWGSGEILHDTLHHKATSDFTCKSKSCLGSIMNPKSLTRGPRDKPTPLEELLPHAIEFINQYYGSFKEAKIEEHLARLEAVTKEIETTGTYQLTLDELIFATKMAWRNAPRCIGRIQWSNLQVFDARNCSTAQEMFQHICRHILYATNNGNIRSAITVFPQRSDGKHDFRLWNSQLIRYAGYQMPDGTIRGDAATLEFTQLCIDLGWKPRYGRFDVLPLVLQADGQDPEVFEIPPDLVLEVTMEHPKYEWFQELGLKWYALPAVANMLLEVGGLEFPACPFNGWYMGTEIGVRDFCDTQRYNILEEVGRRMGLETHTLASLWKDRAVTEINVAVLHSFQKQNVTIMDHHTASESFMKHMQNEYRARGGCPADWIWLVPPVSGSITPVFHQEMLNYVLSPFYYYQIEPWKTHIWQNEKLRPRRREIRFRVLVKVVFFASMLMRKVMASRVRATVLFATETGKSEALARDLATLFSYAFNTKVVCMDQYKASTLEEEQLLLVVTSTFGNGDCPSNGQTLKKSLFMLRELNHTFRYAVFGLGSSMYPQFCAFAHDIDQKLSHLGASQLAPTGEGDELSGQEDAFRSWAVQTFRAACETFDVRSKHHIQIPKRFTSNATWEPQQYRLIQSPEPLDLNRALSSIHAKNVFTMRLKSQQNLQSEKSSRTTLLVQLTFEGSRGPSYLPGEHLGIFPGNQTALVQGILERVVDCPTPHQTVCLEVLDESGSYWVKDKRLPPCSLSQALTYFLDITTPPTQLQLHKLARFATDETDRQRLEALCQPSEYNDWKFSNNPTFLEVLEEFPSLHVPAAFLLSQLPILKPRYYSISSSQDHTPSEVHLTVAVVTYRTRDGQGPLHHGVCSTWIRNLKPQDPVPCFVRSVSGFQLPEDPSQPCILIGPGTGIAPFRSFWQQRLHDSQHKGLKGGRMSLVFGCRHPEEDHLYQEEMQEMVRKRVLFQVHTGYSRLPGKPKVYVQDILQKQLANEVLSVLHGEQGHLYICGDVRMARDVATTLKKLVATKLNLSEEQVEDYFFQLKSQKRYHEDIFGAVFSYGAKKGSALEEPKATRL
Further details: species or system Escherichia coli.

Mitogen-activated protein kinase 1, sequence (P28482 whole entry): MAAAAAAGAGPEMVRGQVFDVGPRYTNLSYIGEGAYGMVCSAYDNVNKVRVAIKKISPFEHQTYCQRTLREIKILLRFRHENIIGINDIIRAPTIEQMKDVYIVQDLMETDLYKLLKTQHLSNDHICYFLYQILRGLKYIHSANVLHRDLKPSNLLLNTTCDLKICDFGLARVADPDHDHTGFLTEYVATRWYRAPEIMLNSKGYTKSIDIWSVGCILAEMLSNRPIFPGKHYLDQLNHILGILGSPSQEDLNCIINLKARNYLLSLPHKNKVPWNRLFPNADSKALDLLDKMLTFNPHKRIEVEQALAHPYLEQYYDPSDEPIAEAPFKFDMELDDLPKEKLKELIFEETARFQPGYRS
Sigma non-opioid intracellular receptor 1, sequence (Q99720 whole entry): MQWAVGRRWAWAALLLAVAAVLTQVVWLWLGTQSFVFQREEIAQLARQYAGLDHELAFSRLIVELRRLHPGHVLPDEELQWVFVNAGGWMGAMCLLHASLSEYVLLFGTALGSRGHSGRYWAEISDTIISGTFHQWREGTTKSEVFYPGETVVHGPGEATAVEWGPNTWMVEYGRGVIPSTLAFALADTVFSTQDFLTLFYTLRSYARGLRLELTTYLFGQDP

Regarding `C1CCC(C(CC2CCCCN2)C2CCCCC2)CC1` (stereo not given) [PERHEXILINE], the IC50 result is “Not Active” in test [1] (cho-k1); “Not Active” in test [2]; “Not Active” in test [3]; “Not Active” in test [4] (cho-k1); 2600 nM in test [5] (read-out: IC50); “Not Active” in test [6]. In addition, the Ki in test [5] (read-out: Ki) stood at 1090 nM.
Consider `CCOc1ccc(NC(C)=O)cc1` [PHENACETIN], for which the IC50 entry in test [1] (cho-k1), in test [2], in test [3], in test [4] (cho-k1), in test [5] (jurkat) and in test [6] was “Not Active” each time.
With `Cc1ccc(N(CC2=NCCN2)c2cccc(O)c2)cc1` [PHENTOLAMINE], the IC50 result in test [1] (cho-k1), in test [2], in test [3], in test [4] (cho-k1), in test [5] (jurkat) and in test [6] was “Not Active” each time.
For `CNNCc1ccc(C(=O)NC(C)C)cc1` [PROCARBAZINE], the IC50 entry in test [1] (cho-k1), in test [2], in test [3], in test [4] (cho-k1), in test [5] (jurkat) and in test [6] was “Not Active” in each case.
With `CN(C)CCCN1c2ccccc2Sc2ccccc21` [PROMAZINE], the IC50 in test [1] (read-out: IC50) was 5170 nM; in test [2], “Not Active”; in test [3], “Not Active”; in test [4] (read-out: IC50), 1090 nM; in test [5] (read-out: IC50), 271 nM; in test [6], “Not Active”. For the same compound, the inhibitory constant (Ki) in test [1] (read-out: Ki) was 2960 nM; in test [4] (read-out: Ki), 387 nM; in test [5] (read-out: Ki) it was 114 nM.
Regarding `CC(O)CO` (stereo not given) [PROPYLENE GLYCOL], the IC50 result in test [1] (cho-k1), in test [2], in test [3], in test [4] (cho-k1), in test [5] (jurkat) and in test [6] was “Not Active” each time.
For CADMIUM ACETATE, the IC50 entry in test [1] (cho-k1), in test [2], in test [3], in test [4] (cho-k1), in test [5] (jurkat) and in test [6] was “Not Active” each time. The inhibition constant (Ki) entry in test [1] (cho-k1), in test [2], in test [3], in test [4] (cho-k1), in test [5] (jurkat) and in test [6] was “Not Active” each time.
Turning to LEAD (II) ACETATE, the IC50 entry in test [1] (cho-k1), in test [2], in test [3], in test [4] (cho-k1), in test [5] (jurkat) and in test [6] was “Not Active” throughout. Moreover, the Ki result in test [1] (cho-k1), in test [2], in test [3], in test [4] (cho-k1), in test [5] (jurkat) and in test [6] was “Not Active” in each case.
With LIPOPOLYSACCHARIDE E. COLI O55:B5, the IC50 entry is “Not Active” in test [1] (cho-k1); 321 nM in test [2] (read-out: IC50); “Not Active” in test [3]; “Not Active” in test [4] (cho-k1); “Not Active” in test [5] (jurkat); “Not Active” in test [6]. Also, the Ki result in test [1] (cho-k1), in test [3], in test [4] (cho-k1), in test [5] (jurkat) and in test [6] was “Not Active” each time.

The values are drawn from ChEMBL document CHEMBL1909046, “DrugMatrix in vitro pharmacology data”.
